Common to all, as to test: relative viability (nuclei count vs DMSO), 5 days (fraction); higher = more cells survive
Compound in experiment [1]: Cn1nnc2c(C(N)=O)ncn2c1=O [Temozolomide] + C[C@]1(O)C[C@@H](c2nc(-c3ccc4ccc(-c5ccccc5)nc4c3)c3c(N)nccn32)C1 [Linsitinib] (partner 1 µM)
In outline:
(§1)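 Cells from lung cancer lines were seeded into 1536-well plates and, one day later, dosed by pin tool. Treatments were either a single drug or a fixed dose of an anchor drug with five library-drug doses (not always all listed) in √10 steps. After 5 days, nuclei were stained in a one-step fixation (final 0.05% Triton X-100, 1% formaldehyde, 1 ug/ml Hoechst) and counted on 4× images, and relative viability is the treated-to-vehicle nuclei ratio, as the median of duplicate plates.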

Compound in the experiment “AZD5582 + Phenformin”: C[C@@H](C(=O)N[C@@H](C1CCCCC1)C(=O)N2CCC[C@H]2C(=O)N[C@@H]3[C@@H](CC4=CC=CC=C34)OCC#CC#CCO[C@@H]5CC6=CC=CC=C6[C@@H]5NC(=O)[C@@H]7CCCN7C(=O)[C@H](C8CCCCC8)NC(=O)[C@H](C)NC)NC [AZD5582] + N=C(N)NC(=N)NCCc1ccccc1 [Phenformin] (partner 250 µM)
The essentials:
as §1

Compound in the experiment “AZD5582 + Decitabine”: C[C@@H](C(=O)N[C@@H](C1CCCCC1)C(=O)N2CCC[C@H]2C(=O)N[C@@H]3[C@@H](CC4=CC=CC=C34)OCC#CC#CCO[C@@H]5CC6=CC=CC=C6[C@@H]5NC(=O)[C@@H]7CCCN7C(=O)[C@H](C8CCCCC8)NC(=O)[C@H](C)NC)NC [AZD5582] + Nc1ncn([C@H]2C[C@H](O)[C@@H](CO)O2)c(=O)n1 [Decitabine] (partner 2 µM)
In outline: as §1

Compound in the experiment “AZD5582 + Luminespib”: C[C@@H](C(=O)N[C@@H](C1CCCCC1)C(=O)N2CCC[C@H]2C(=O)N[C@@H]3[C@@H](CC4=CC=CC=C34)OCC#CC#CCO[C@@H]5CC6=CC=CC=C6[C@@H]5NC(=O)[C@@H]7CCCN7C(=O)[C@H](C8CCCCC8)NC(=O)[C@H](C)NC)NC [AZD5582] + CCNC(=O)c1noc(-c2cc(C(C)C)c(O)cc2O)c1-c1ccc(CN2CCOCC2)cc1 [Luminespib] (partner 0.01 µM)
The essentials:
as §1

On to NCI-H1395, for which the relative viability came to 0.821 in experiment [1] (first compound 0.2 µM); 1.05 in experiment [1] (first compound 0.6325 µM); 1.31 in experiment [1] (first compound 2 µM); 0.978 in experiment [1] (first compound 6.325 µM); 1.04 in experiment [1] (first compound 20 µM); 0.5 with AZD5582 + Phenformin (first compound 0.001581 µM). The relative viability came to 0.476 with AZD5582 + Phenformin (first compound 0.005 µM); 0.412 with AZD5582 + Phenformin (first compound 0.01581 µM); 0.45 with AZD5582 + Phenformin (first compound 0.05 µM); 0.694 with AZD5582 + Decitabine (first compound 0.001581 µM); 0.743 with AZD5582 + Decitabine (first compound 0.005 µM); 0.782 with AZD5582 + Decitabine (first compound 0.05 µM). The relative viability with AZD5582 + Luminespib (first compound 0.001581 µM) worked out at 0.579; in the experiment with AZD5582 + Luminespib (first compound 0.005 µM), 0.685; in the experiment with AZD5582 + Luminespib (first compound 0.01581 µM) it was 0.805; with AZD5582 + Luminespib (first compound 0.05 µM), 0.91.
Take NCI-H1915: the relative viability in experiment [1] (first compound 0.2 µM) was found to be 1.15; in experiment [1] (first compound 0.6325 µM), 1.02; in experiment [1] (first compound 2 µM), 0.969; in experiment [1] (first compound 6.325 µM) it was 0.711; in experiment [1] (first compound 20 µM), 0.402; in the experiment with AZD5582 + Phenformin (first compound 0.001581 µM), 0.358. In addition, the relative viability worked out at 0.361 in the experiment with AZD5582 + Phenformin (first compound 0.005 µM); 0.342 in the experiment with AZD5582 + Phenformin (first compound 0.01581 µM); 0.367 with AZD5582 + Phenformin (first compound 0.05 µM); 0.278 with AZD5582 + Decitabine (first compound 0.001581 µM); 0.26 with AZD5582 + Decitabine (first compound 0.005 µM); 0.276 with AZD5582 + Decitabine (first compound 0.01581 µM). For the same cell line, the relative viability with AZD5582 + Decitabine (first compound 0.05 µM) came to 0.259; with AZD5582 + Luminespib (first compound 0.001581 µM), 0.756; with AZD5582 + Luminespib (first compound 0.005 µM) it was 0.782; with AZD5582 + Luminespib (first compound 0.01581 µM), 0.693; with AZD5582 + Luminespib (first compound 0.05 µM), 0.829.
Turning to BEN, the relative viability in experiment [1] (first compound 0.2 µM) came to 0.752; in experiment [1] (first compound 0.6325 µM), 0.941; in experiment [1] (first compound 2 µM), 0.997; in experiment [1] (first compound 6.325 µM), 0.781; in experiment [1] (first compound 20 µM), 0.707; with AZD5582 + Phenformin (first compound 0.001581 µM) it was 0.278. Moreover, the relative viability with AZD5582 + Phenformin (first compound 0.005 µM) came to 0.249; with AZD5582 + Phenformin (first compound 0.01581 µM), 0.301; with AZD5582 + Phenformin (first compound 0.05 µM), 0.27; in the experiment with AZD5582 + Decitabine (first compound 0.001581 µM), 0.699; with AZD5582 + Decitabine (first compound 0.005 µM), 0.668; with AZD5582 + Decitabine (first compound 0.01581 µM), 0.683. Further, the relative viability in the experiment with AZD5582 + Decitabine (first compound 0.05 µM) came to 0.62; with AZD5582 + Luminespib (first compound 0.001581 µM), 0.332; in the experiment with AZD5582 + Luminespib (first compound 0.005 µM), 0.325; with AZD5582 + Luminespib (first compound 0.01581 µM), 0.634; with AZD5582 + Luminespib (first compound 0.05 µM), 0.392.
LC-2-ad: the relative viability in experiment [1] (first compound 0.2 µM) stood at 0.795; in experiment [1] (first compound 0.6325 µM) it was 0.823; in experiment [1] (first compound 2 µM), 0.808; in experiment [1] (first compound 6.325 µM), 0.751; in experiment [1] (first compound 20 µM), 0.807; with AZD5582 + Phenformin (first compound 0.001581 µM), 0.607. Besides, the relative viability was found to be 0.64 with AZD5582 + Phenformin (first compound 0.005 µM); 0.338 with AZD5582 + Phenformin (first compound 0.01581 µM); 0.585 with AZD5582 + Phenformin (first compound 0.05 µM); 0.822 in the experiment with AZD5582 + Decitabine (first compound 0.001581 µM); 0.847 with AZD5582 + Decitabine (first compound 0.005 µM); 0.765 in the experiment with AZD5582 + Decitabine (first compound 0.01581 µM). Further, the relative viability worked out at 0.764 with AZD5582 + Decitabine (first compound 0.05 µM); 1.1 with AZD5582 + Luminespib (first compound 0.001581 µM); 1.03 with AZD5582 + Luminespib (first compound 0.005 µM); 0.942 with AZD5582 + Luminespib (first compound 0.01581 µM); 0.901 with AZD5582 + Luminespib (first compound 0.05 µM).
With LXF-289, the relative viability is 0.933 in experiment [1] (first compound 0.2 µM); 0.939 in experiment [1] (first compound 0.6325 µM); 0.954 in experiment [1] (first compound 2 µM); 0.938 in experiment [1] (first compound 6.325 µM); 0.876 in experiment [1] (first compound 20 µM); 0.484 with AZD5582 + Phenformin (first compound 0.001581 µM). In addition, the relative viability in the experiment with AZD5582 + Phenformin (first compound 0.005 µM) is 0.488; with AZD5582 + Phenformin (first compound 0.01581 µM), 0.409; with AZD5582 + Phenformin (first compound 0.05 µM) it was 0.486; with AZD5582 + Decitabine (first compound 0.001581 µM), 0.372; with AZD5582 + Decitabine (first compound 0.005 µM), 0.331; in the experiment with AZD5582 + Decitabine (first compound 0.01581 µM), 0.391. Besides, the relative viability with AZD5582 + Decitabine (first compound 0.05 µM) amounted to 0.308; with AZD5582 + Luminespib (first compound 0.001581 µM) it was 0.76; with AZD5582 + Luminespib (first compound 0.005 µM), 0.561; in the experiment with AZD5582 + Luminespib (first compound 0.01581 µM), 0.627; with AZD5582 + Luminespib (first compound 0.05 µM), 0.749.
